Reference: patent US20240025919A1, “AZA-TETRACYCLIC OXAZEPINE COMPOUNDS AND USES THEREOF” (Genentech, Inc., priority 2022, published 2024)

Tests used:
KRAS WT [1] = molecular target: T1, KRAS WT (Homo sapiens (Human), UniProt P01116); test: KRAS WT Biochemical Assay, BODIPY-GDP Exchange TR-FRET (Example 502; 0.06 nM KRAS WT, 15 nM GDP, 300 nM SOS1, 120-minute incubation); conditions: read-out: KRas HTRF IC50
Procedure, shortened: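 IC50 from a 4-parameter Hill fit of percent inhibition, itself the TR-FRET 520/490 nm ratio scaled between DMSO and a fully inhibiting control. Reaction: 300 nM SOS1 and 300 nM BODIPY-GDP added to preformed 0.06 nM KRAS WT/15 nM GDP/Tb-streptavidin complex; 120 min incubation; pH 7.5 HEPES, MgCl2, DTT.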

KRAS G12D = KRAS G12D (Homo sapiens (Human), UniProt P01116, G12D); test: KRAS G12D LoEnz Biochemical Assay, BODIPY-GDP Exchange TR-FRET (SOS1-mediated nucleotide exchange); conditions: read-out: KRas (G12D) GDP HTRF IC50
KRAS WT [2] = molecular target: T1, KRAS WT; test: KRAS WT Biochemical Assay, BODIPY-GDP Exchange TR-FRET (Example 501; 3 nM KRAS WT, 3 nM SOS1, 60-minute incubation); conditions: read-out: KRas(wt) GDP HTRF IC50
Procedure, shortened: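 SOS1-mediated exchange assay: 3 nM biotin-KRAS WT with terbium-streptavidin, started with 3 nM SOS1 and 300 nM BODIPY-GDP, HEPES pH 7.5 with MgCl2. TR-FRET (520/490 nm) read after 60 min; normalized to DMSO and full-inhibition control, IC50 from 4-parameter Hill fit.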

T1 sequence (P01116-2 other isoform, or with tags, fused parts or gaps): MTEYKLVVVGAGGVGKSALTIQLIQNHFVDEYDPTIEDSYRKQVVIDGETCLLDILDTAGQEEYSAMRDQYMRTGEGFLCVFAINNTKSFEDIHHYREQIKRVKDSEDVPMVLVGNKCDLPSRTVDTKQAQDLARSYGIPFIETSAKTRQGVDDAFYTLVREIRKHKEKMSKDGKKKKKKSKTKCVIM
Chain of KRAS G12D (P01116-2 other isoform, or with tags, fused parts or gaps G12D): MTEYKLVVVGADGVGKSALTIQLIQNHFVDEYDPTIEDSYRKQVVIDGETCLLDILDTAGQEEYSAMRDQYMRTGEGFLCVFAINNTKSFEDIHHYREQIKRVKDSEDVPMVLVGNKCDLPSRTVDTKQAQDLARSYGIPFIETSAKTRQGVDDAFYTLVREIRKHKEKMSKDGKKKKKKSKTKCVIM

SMILES	IC50 (KRAS WT [1]) [nM]	IC50 (KRAS G12D) [nM]	IC50 (KRAS WT [2]) [nM]
Cc1c(F)c(N)cc(-c2nc3c4c(nc(OC[C@@]56CCCN5C[C@H](F)C6)nc4c2F)N2C[C@H]4CC[C@H](N4)[C@H]2[C@H](C)O3)c1C(F)(F)F [Compound 6, 2-Fluoro-5-((5S,5aS,6S,9R)-1-fluoro-12-(((2R,7aS)-2-fluorotetrahydro-1H-pyrrolizin-7a(5H)-yl)methoxy)-5-methyl-5a,6,7,8,9,10-hexahydro-5H-4-oxa-3,10a,11,13,14-pentaaza-6,9-methanonaphtho[1,8-ab]heptalen-2-yl)-3-methyl-4-(trifluoromethyl)aniline]	0.548	0.074	0.48
C#Cc1c(F)ccc2cc(O)cc(-c3nc4c5c(nc(OC[C@@]67CCCN6C[C@H](F)C7)nc5c3F)N3C[C@H]5CC[C@H](N5)[C@H]3[C@H](C)O4)c12 [Compound 7, 5-Ethynyl-6-fluoro-4-((5S,5aS,6S,9R)-1-fluoro-12-(((2R,7aS)-2-fluorotetrahydro-1H-pyrrolizin-7a(5H)-yl)methoxy)-5-methyl-5a,6,7,8,9,10-hexahydro-5H-4-oxa-3,10a,11,13,14-pentaaza-6,9-methanonaphtho[1,8-ab]heptalen-2-yl)naphthalen-2-ol]	0.288	0.059	0.296
Cc1c(F)c(N)cc(-c2nc3c4c(nc(OCC5(CN6C[C@H]7C[C@@H]6CO7)CC5)nc4c2F)N2C[C@H]4CC[C@H](N4)[C@H]2[C@H](C)O3)c1C(F)(F)F [Compound 170, 5-((5S,5aS,6S,9R)-12-((1-(((1R,4R)-2-Oxa-5-azabicyclo[2.2.1]heptan-5-yl)methyl)cyclopropyl)methoxy)-1-fluoro-5-methyl-5a,6,7,8,9,10-hexahydro-5H-4-oxa-3,10a,11,13,14-pentaaza-6,9-methanonaphtho[1,8-ab]heptalene-2-yl)-2-fluoro-3-methyl-4-(trifluoromethyl)aniline]	2.16	0.09	–
Cc1c(F)c(N)cc(-c2nc3c4c(nc(OCC5(CN6CCO[C@H](CF)C6)CC5)nc4c2F)N2C[C@H]4CC[C@H](N4)[C@H]2[C@H](C)O3)c1C(F)(F)F [Compound 171, 2-Fluoro-5-((5S,5aS,6S,9R)-1-fluoro-12-((1-(((S)-2-(fluoromethyl)morpholino)methyl)cyclopropyl)methoxy)-5-methyl-5a,6,7,8,9,10-hexahydro-5H-4-oxa-3,10a,11,13,14-pentaaza-6,9-methanonaphtho[1,8-ab]heptalen-2-yl)-3-methyl-4-(trifluoromethyl)aniline]	13.7	0.253	–
Cc1c(F)c(N)cc(-c2nc3c4c(nc(OCC5(CN6CCO[C@@H](CF)C6)CC5)nc4c2F)N2C[C@H]4CC[C@H](N4)[C@H]2[C@H](C)O3)c1C(F)(F)F [Compound 172, 2-Fluoro-5-((5S,5aS,6S,9R)-1-fluoro-12-((1-(((R)-2-(fluoromethyl)morpholino)methyl)cyclopropyl)methoxy)-5-methyl-5a,6,7,8,9,10-hexahydro-5H-4-oxa-3,10a,11,13,14-pentaaza-6,9-methanonaphtho[1,8-ab]heptalen-2-yl)-3-methyl-4-(trifluoromethyl)aniline]	11.1	0.24	–
Cc1c(F)c(N)cc(-c2nc3c4c(nc(OCC5(CN6CC(F)C6)CC5)nc4c2F)N2C[C@H]4CC[C@H](N4)[C@H]2[C@H](C)O3)c1C(F)(F)F [Compound 173, 2-Fluoro-5-((5S,5aS,6S,9R)-1-fluoro-12-((1-((3-fluoroazetidin-1-yl)methyl)cyclopropyl)methoxy)-5-methyl-5a,6,7,8,9,10-hexahydro-5H-4-oxa-3,10a,11,13,14-pentaaza-6,9-methanonaphtho[1,8-ab]heptalene-2-yl)-3-methyl-4-(trifluoromethyl)aniline]	5.95	0.08	–
Cc1c(F)c(N)cc(-c2nc3c4c(nc(OCC5(CN6CC7(COC7)C6)CC5)nc4c2F)N2C[C@H]4CC[C@H](N4)[C@H]2[C@H](C)O3)c1C(F)(F)F [Compound 174, 5-((5S,5aS,6S,9R)-12-((1-((2-Oxa-azaspiro[3.3]heptan-6-yl)methyl)cyclopropyl)methoxy)-1-fluoro-5-methyl-5a,6,7,8,9,10-hexahydro-5H-4-oxa-3,10a,11,13,14-pentaaza[6,9]methanonaphtho[1,8-ab]heptalene-2-yl)-2-fluoro-3-methyl-4-(trifluoromethyl)aniline]	3.04	3.39	–
Cc1c(F)c(N)c(F)c(-c2nc3c4c(nc(OC[C@@]56CCCN5C[C@H](F)C6)nc4c2F)N2C[C@H]4CC[C@H](N4)[C@H]2[C@H](C)O3)c1CC(F)F [Compound 175, 4-(2,2-Difluoroethyl)-2,6-difluoro-3-((5S,5aS,6S,9R)-1-fluoro-12-(((2R,7aS)-2-fluorotetrahydro-1H-pyrrolizin-7a(5H)-yl)methoxy)-5-methyl-5a,6,7,8,9,10-hexahydro-5H-4-oxa-3,10a,11,13,14-pentaaza-6,9-methanonaphtho[1,8-ab]heptalen-2-yl)-5-methylaniline]	108	3.39	–
Cc1cc2[nH]ncc2c(-c2nc3c4c(nc(OC[C@@]56CCCN5C[C@H](F)C6)nc4c2F)N2C[C@H]4CC[C@H](N4)[C@H]2[C@H](C)O3)c1Cl [Compound 176, (5S,5aS,6S,9R)-2-(5-Chloro-6-methyl-1H-indazol-4-yl)-1-fluoro-12-(((2R,7aS)-2-fluorotetrahydro-1H-pyrrolizin-7a(5H)-yl)methoxy)-5-methyl-5a,6,7,8,9,10-hexahydro-5H-4-oxa-3,10a,11,13,14-pentaaza-6,9-methanonaphtho[1,8-ab]heptalene]	809	2.8	–
Cc1cc(-c2nc3c4c(nc(OC[C@@]56CCCN5C[C@H](F)C6)nc4c2F)N2C[C@H]4CC[C@H](N4)[C@H]2[C@H](C)O3)c(F)c(N)n1 [Compound 177, 3-Fluoro-4-((5S,5aS,6S,9R)-1-fluoro-12-(((2R,7aS)-2-fluorotetrahydro-1H-pyrrolizin-7°(5H)-yl)methoxy)-5-methyl-5°,6,7,8,9,10-hexahydro-5H-4-oxa-3,10°,11,13,14-pentaaza-6,9-methanonaphtho[1,8-ab]heptalen-2-yl)-6-methylpyridin-2-amine]	11700	126	–
CCc1cccc2nc(N)cc(-c3nc4c5c(nc(OC[C@@]67CCCN6C[C@H](F)C7)nc5c3F)N3C[C@H]5CC[C@H](N5)[C@H]3[C@H](C)O4)c12 [Compound 179, 5-Ethyl-4-((5S,5aS,6S,9R)-1-fluoro-12-(((2R,7aS)-2-fluorotetrahydro-1H-pyrrolizin-7a(5H)-yl)methoxy)-5-methyl-5a,6,7,8,9,10-hexahydro-5H-4-oxa-3,10a,11,13,14-pentaaza-6,9-methanonaphtho[1,8-ab]heptalene-2-yl)quinolin-2-amine]	659	6.64	–
Cc1c(F)c(N)cc(-c2nc3c4c(nc(OC[C@@]56CCCN5C[C@H](F)C6)nc4c2F)N2C[C@H]4CC[C@H](N4)[C@H]2[C@H](C)O3)c1S(C)(=O)=O [Compound 180, 2-Fluoro-5-((5S,5aS,6S,9R)-1-fluoro-12-(((2R,7aS)-2-fluorotetrahydro-1H-pyrrolizin-7a(5H)-yl)methoxy)-5-methyl-5a,6,7,8,9,10-hexahydro-5H-4-oxa-3,10a,11,13,14-pentaaza-6,9-methanonaphtho[1,8-ab]heptalene-2-yl)-3-methyl-4-(methylsulfonyl)aniline]	2740	17.4	–
